# Results from PubChem BioAssay (NCI).
#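 GI50 is the concentration that inhibits growth by half. TGI marks complete inhibition of growth.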
# Key:
# Experiment in all cases: growth of human tumour cells (NCI), 384-well format
# MCF7 breast = test system: MCF7 breast
# HCT-116 colon = test system: HCT-116 colon
# EKVX NSCLC = test system: EKVX NSCLC
# CAKI-1 renal = test system: CAKI-1 renal
# UO-31 renal = test system: UO-31 renal
# HT29 colon = test system: HT29 colon
# KM12 colon = test system: KM12 colon
# HCT-15 colon = test system: HCT-15 colon
# SF-295 CNS = test system: SF-295 CNS
# OVCAR-4 ovarian = test system: OVCAR-4 ovarian
# SR leukemia = test system: SR leukemia
# NCI-H23 lung = test system: NCI-H23 lung
# HS 578T breast = test system: HS 578T breast
# MOLT-4 leukemia = test system: MOLT-4 leukemia
# COLO 205 colon = test system: COLO 205 colon
# PC-3 prostate = test system: PC-3 prostate
# SNB-75 CNS = test system: SNB-75 CNS
# NCI-H522 lung = test system: NCI-H522 lung
# NCI-H322M lung = test system: NCI-H322M lung
# NCI-H226 lung = test system: NCI-H226 lung
# RPMI-8226 leukemia = test system: RPMI-8226 leukemia
# SK-MEL-28 melanoma = test system: SK-MEL-28 melanoma
# SF-539 CNS = test system: SF-539 CNS
# MDA-MB-468 breast = test system: MDA-MB-468 breast
# UACC-62 melanoma = test system: UACC-62 melanoma
# NCI-H460 NSCLC = test system: NCI-H460 NSCLC
# OVCAR-3 ovarian = test system: OVCAR-3 ovarian
# A498 renal = test system: A498 renal
# SK-MEL-5 melanoma = test system: SK-MEL-5 melanoma
# 786-0 renal = test system: 786-0 renal
# HCC-2998 colon = test system: HCC-2998 colon
# MDA-MB-231 breast = test system: MDA-MB-231 breast
# BT-549 breast = test system: BT-549 breast
# OVCAR-8 ovarian = test system: OVCAR-8 ovarian
# RXF 393 renal = test system: RXF 393 renal
# HL-60(TB) leukemia = test system: HL-60(TB) leukemia
# OVCAR-5 ovarian = test system: OVCAR-5 ovarian
# IGROV1 ovarian = test system: IGROV1 ovarian
# SN12C renal = test system: SN12C renal
# M14 melanoma = test system: M14 melanoma
# SK-OV-3 ovarian = test system: SK-OV-3 ovarian
# NCI/ADR-RES ovarian = test system: NCI/ADR-RES ovarian
# MALME-3M melanoma = test system: MALME-3M melanoma
# ACHN renal = test system: ACHN renal
# HOP-62 NSCLC = test system: HOP-62 NSCLC
# SNB-19 CNS = test system: SNB-19 CNS
# HOP-92 NSCLC = test system: HOP-92 NSCLC
# MDA-MB-435 melanoma = test system: MDA-MB-435 melanoma
# A549 NSCLC = test system: A549 NSCLC
# U251 glioblastoma = test system: U251 glioblastoma
# T-47D breast = test system: T-47D breast
# LOX IMVI melanoma = test system: LOX IMVI melanoma
# DU-145 prostate = test system: DU-145 prostate
# UACC-257 melanoma = test system: UACC-257 melanoma
# SK-MEL-2 melanoma = test system: SK-MEL-2 melanoma
# CCRF-CEM leukemia = test system: CCRF-CEM leukemia
# SF-268 CNS = test system: SF-268 CNS
# TK-10 renal = test system: TK-10 renal
# K-562 leukemia = test system: K-562 leukemia
# SW-620 colon = test system: SW-620 colon
smiles,measurement,setting,value
Cc1c(C(=O)Nc2ccc(N3C[C@@H](C)O[C@@H](C)C3)nc2)cccc1-c1ccc(OC(F)(F)F)cc1,GI50,MCF7 breast,7.5 µM
same,TGI,MCF7 breast,13.7 µM
same,GI50,HCT-116 colon,6.16 µM
same,TGI,HCT-116 colon,17.8 µM
same,GI50,EKVX NSCLC,5.38 µM
same,TGI,EKVX NSCLC,12.6 µM
same,GI50,CAKI-1 renal,14.7 µM
same,TGI,CAKI-1 renal,28 µM
same,GI50,UO-31 renal,> 40.2 µM
same,TGI,UO-31 renal,> 54.6 µM
same,GI50,HT29 colon,3.55 µM
same,TGI,HT29 colon,5.04 µM
same,GI50,KM12 colon,12 µM
same,TGI,KM12 colon,16.6 µM
same,GI50,HCT-15 colon,7.15 µM
same,TGI,HCT-15 colon,13.3 µM
same,GI50,SF-295 CNS,8.16 µM
same,GI50,OVCAR-4 ovarian,4.99 µM
same,TGI,OVCAR-4 ovarian,14.9 µM
same,GI50,SR leukemia,5.32 µM
same,TGI,SR leukemia,13.4 µM
same,GI50,NCI-H23 lung,7.39 µM
same,TGI,NCI-H23 lung,13.5 µM
same,GI50,HS 578T breast,8.01 µM
same,TGI,HS 578T breast,20.9 µM
same,GI50,MOLT-4 leukemia,4.21 µM
same,TGI,MOLT-4 leukemia,15.4 µM
same,GI50,COLO 205 colon,3.35 µM
same,TGI,COLO 205 colon,4.86 µM
same,GI50,PC-3 prostate,12.4 µM
same,TGI,PC-3 prostate,25 µM
same,GI50,SNB-75 CNS,5.67 µM
same,GI50,NCI-H522 lung,1.9 µM
same,TGI,NCI-H522 lung,3.79 µM
same,GI50,NCI-H322M lung,13.3 µM
same,TGI,NCI-H322M lung,26.3 µM
same,GI50,NCI-H226 lung,6.16 µM
same,TGI,NCI-H226 lung,12.8 µM
same,GI50,RPMI-8226 leukemia,6.67 µM
same,TGI,RPMI-8226 leukemia,12.7 µM
same,GI50,SK-MEL-28 melanoma,12.3 µM
same,TGI,SK-MEL-28 melanoma,17.8 µM
same,GI50,SF-539 CNS,11.2 µM
same,TGI,SF-539 CNS,18.1 µM
same,GI50,MDA-MB-468 breast,5.63 µM
same,TGI,MDA-MB-468 breast,11.3 µM
same,GI50,UACC-62 melanoma,13 µM
same,TGI,UACC-62 melanoma,17.5 µM
same,GI50,NCI-H460 NSCLC,9.46 µM
same,TGI,NCI-H460 NSCLC,14.5 µM
same,GI50,OVCAR-3 ovarian,10.6 µM
same,TGI,OVCAR-3 ovarian,15.3 µM
same,GI50,A498 renal,7 µM
same,TGI,A498 renal,12.7 µM
same,GI50,SK-MEL-5 melanoma,7.06 µM
same,TGI,SK-MEL-5 melanoma,13.1 µM
same,GI50,786-0 renal,6.53 µM
same,TGI,786-0 renal,17.5 µM
same,GI50,HCC-2998 colon,11.9 µM
same,TGI,HCC-2998 colon,16.5 µM
same,GI50,MDA-MB-231 breast,3.63 µM
same,TGI,MDA-MB-231 breast,14.8 µM
same,GI50,BT-549 breast,8.61 µM
same,TGI,BT-549 breast,22.1 µM
same,GI50,OVCAR-8 ovarian,10.6 µM
same,TGI,OVCAR-8 ovarian,15.3 µM
same,GI50,RXF 393 renal,4.85 µM
same,TGI,RXF 393 renal,8.09 µM
same,GI50,HL-60(TB) leukemia,6.8 µM
same,TGI,HL-60(TB) leukemia,12.7 µM
same,GI50,OVCAR-5 ovarian,16.6 µM
same,TGI,OVCAR-5 ovarian,30.7 µM
same,GI50,IGROV1 ovarian,12.3 µM
same,TGI,IGROV1 ovarian,25.4 µM
same,GI50,SN12C renal,13.7 µM
same,TGI,SN12C renal,26.8 µM
same,GI50,M14 melanoma,16 µM
same,TGI,M14 melanoma,30.4 µM
same,GI50,SK-OV-3 ovarian,3.89 µM
same,TGI,SK-OV-3 ovarian,5.34 µM
same,GI50,NCI/ADR-RES ovarian,5.04 µM
same,TGI,NCI/ADR-RES ovarian,18 µM
same,GI50,MALME-3M melanoma,7.69 µM
same,TGI,MALME-3M melanoma,19.6 µM
same,GI50,ACHN renal,11.4 µM
same,TGI,ACHN renal,24.8 µM
same,GI50,HOP-62 NSCLC,2.23 µM
same,TGI,HOP-62 NSCLC,4.12 µM
same,GI50,SNB-19 CNS,15 µM
same,TGI,SNB-19 CNS,28.4 µM
same,GI50,HOP-92 NSCLC,5.92 µM
same,TGI,HOP-92 NSCLC,14 µM
same,GI50,MDA-MB-435 melanoma,17.6 µM
same,TGI,MDA-MB-435 melanoma,32.7 µM
same,GI50,A549 NSCLC,6.24 µM
same,TGI,A549 NSCLC,11.7 µM
same,GI50,U251 glioblastoma,> 31.6 µM
same,TGI,U251 glioblastoma,> 31.6 µM
same,GI50,T-47D breast,1.47 µM
same,TGI,T-47D breast,3.43 µM
same,GI50,LOX IMVI melanoma,7.94 µM
same,TGI,LOX IMVI melanoma,13.8 µM
same,GI50,DU-145 prostate,8.5 µM
same,TGI,DU-145 prostate,20.9 µM
O=C(Nc1cccc(Br)c1)Oc1cccc2cccnc12,GI50,MCF7 breast,2.23 µM
same,TGI,MCF7 breast,4.47 µM
same,GI50,HCT-116 colon,2.4 µM
same,TGI,HCT-116 colon,4.37 µM
same,GI50,UACC-257 melanoma,2.28 µM
same,TGI,UACC-257 melanoma,4.16 µM
same,GI50,EKVX NSCLC,2.39 µM
same,TGI,EKVX NSCLC,4.96 µM
same,GI50,CAKI-1 renal,2.35 µM
same,TGI,CAKI-1 renal,4.98 µM
same,GI50,HT29 colon,8.98 µM
same,TGI,HT29 colon,21.2 µM
same,GI50,KM12 colon,5.99 µM
same,TGI,KM12 colon,18.1 µM
same,GI50,HCT-15 colon,3.4 µM
same,TGI,HCT-15 colon,9.07 µM
same,GI50,SF-295 CNS,7.95 µM
same,TGI,SF-295 CNS,23.6 µM
same,GI50,OVCAR-4 ovarian,4.82 µM
same,TGI,OVCAR-4 ovarian,14.9 µM
same,GI50,SK-MEL-2 melanoma,2.8 µM
same,TGI,SK-MEL-2 melanoma,5.41 µM
same,GI50,NCI-H23 lung,2.01 µM
same,TGI,NCI-H23 lung,3.73 µM
same,GI50,HS 578T breast,16.7 µM
same,TGI,HS 578T breast,39.8 µM
same,GI50,MOLT-4 leukemia,1.99 µM
same,TGI,MOLT-4 leukemia,3.47 µM
same,GI50,COLO 205 colon,2.61 µM
same,TGI,COLO 205 colon,4.87 µM
same,GI50,CCRF-CEM leukemia,1.94 µM
same,TGI,CCRF-CEM leukemia,3.43 µM
same,GI50,PC-3 prostate,2.79 µM
same,TGI,PC-3 prostate,5.48 µM
same,GI50,SNB-75 CNS,4.08 µM
same,TGI,SNB-75 CNS,12.9 µM
same,GI50,NCI-H522 lung,2.18 µM
same,TGI,NCI-H522 lung,4.32 µM
same,GI50,NCI-H322M lung,17.5 µM
same,TGI,NCI-H322M lung,43 µM
same,GI50,NCI-H226 lung,1.74 µM
same,TGI,NCI-H226 lung,3.42 µM
same,GI50,RPMI-8226 leukemia,2.26 µM
same,TGI,RPMI-8226 leukemia,3.75 µM
same,GI50,SK-MEL-28 melanoma,4.56 µM
same,TGI,SK-MEL-28 melanoma,15.1 µM
same,GI50,SF-539 CNS,5.79 µM
same,TGI,SF-539 CNS,17.1 µM
same,GI50,MDA-MB-468 breast,2.82 µM
same,TGI,MDA-MB-468 breast,4.48 µM
same,GI50,UACC-62 melanoma,3.74 µM
same,TGI,UACC-62 melanoma,9.42 µM
same,GI50,SF-268 CNS,3.69 µM
same,TGI,SF-268 CNS,9.11 µM
same,GI50,NCI-H460 NSCLC,2.76 µM
same,TGI,NCI-H460 NSCLC,6.44 µM
same,GI50,OVCAR-3 ovarian,2.12 µM
same,TGI,OVCAR-3 ovarian,3.92 µM
same,GI50,A498 renal,12.9 µM
same,TGI,A498 renal,26.3 µM
same,GI50,SK-MEL-5 melanoma,5.81 µM
same,TGI,SK-MEL-5 melanoma,17.9 µM
same,GI50,786-0 renal,16.3 µM
same,TGI,786-0 renal,33.9 µM
same,GI50,HCC-2998 colon,16.2 µM
same,TGI,HCC-2998 colon,30.1 µM
same,GI50,BT-549 breast,6.95 µM
same,TGI,BT-549 breast,22 µM
same,GI50,TK-10 renal,6.51 µM
same,TGI,TK-10 renal,33.5 µM
same,GI50,OVCAR-8 ovarian,2.56 µM
same,TGI,OVCAR-8 ovarian,5.3 µM
same,GI50,RXF 393 renal,3.5 µM
same,TGI,RXF 393 renal,7.85 µM
same,GI50,HL-60(TB) leukemia,1.73 µM
same,TGI,HL-60(TB) leukemia,3.11 µM
same,GI50,K-562 leukemia,23.5 µM
same,TGI,K-562 leukemia,50.3 µM
same,GI50,IGROV1 ovarian,2.23 µM
same,TGI,IGROV1 ovarian,4.46 µM
same,GI50,SN12C renal,4.46 µM
same,TGI,SN12C renal,15.4 µM
same,GI50,M14 melanoma,2.78 µM
same,TGI,M14 melanoma,6.06 µM
same,GI50,SK-OV-3 ovarian,17.9 µM
same,TGI,SK-OV-3 ovarian,34.3 µM
same,GI50,NCI/ADR-RES ovarian,2.43 µM
same,TGI,NCI/ADR-RES ovarian,4.56 µM
same,GI50,MALME-3M melanoma,4.16 µM
same,TGI,MALME-3M melanoma,13.1 µM
same,GI50,SW-620 colon,6.19 µM
same,TGI,SW-620 colon,36.7 µM
same,GI50,ACHN renal,6.26 µM
same,TGI,ACHN renal,27.1 µM
same,GI50,HOP-62 NSCLC,7.61 µM
same,TGI,HOP-62 NSCLC,18.8 µM
same,GI50,SNB-19 CNS,9.79 µM
same,TGI,SNB-19 CNS,38.3 µM
same,GI50,HOP-92 NSCLC,4.02 µM
same,TGI,HOP-92 NSCLC,10.5 µM
same,GI50,MDA-MB-435 melanoma,12.6 µM
same,TGI,MDA-MB-435 melanoma,30.4 µM
same,GI50,A549 NSCLC,13.8 µM
same,TGI,A549 NSCLC,32.8 µM
same,GI50,U251 glioblastoma,5.89 µM
same,TGI,U251 glioblastoma,17.4 µM
same,GI50,LOX IMVI melanoma,2.95 µM
same,TGI,LOX IMVI melanoma,10.8 µM
same,GI50,DU-145 prostate,8.98 µM
same,TGI,DU-145 prostate,36.7 µM
